pEC50, pIC50: −log10 of the molar value. Where two headings read alike, the source gives them in different places.
Key:
[1] = target: T1, FXR (CMX-hFXR with CMX-RXRα in CV-1 cells) (Homo sapiens, UniProt Q96RI1); test: FXR/ECREx7 co-transfection assay (luciferase reporter); assay type: cell-based; settings: for pEC50: FXR agonism
T1 construct: expressed in transfected cells; host or cells: CV-1 African Green Monkey Kidney cells
T1 sequence (Q96RI1 1-472 isoform Q96RI1-2): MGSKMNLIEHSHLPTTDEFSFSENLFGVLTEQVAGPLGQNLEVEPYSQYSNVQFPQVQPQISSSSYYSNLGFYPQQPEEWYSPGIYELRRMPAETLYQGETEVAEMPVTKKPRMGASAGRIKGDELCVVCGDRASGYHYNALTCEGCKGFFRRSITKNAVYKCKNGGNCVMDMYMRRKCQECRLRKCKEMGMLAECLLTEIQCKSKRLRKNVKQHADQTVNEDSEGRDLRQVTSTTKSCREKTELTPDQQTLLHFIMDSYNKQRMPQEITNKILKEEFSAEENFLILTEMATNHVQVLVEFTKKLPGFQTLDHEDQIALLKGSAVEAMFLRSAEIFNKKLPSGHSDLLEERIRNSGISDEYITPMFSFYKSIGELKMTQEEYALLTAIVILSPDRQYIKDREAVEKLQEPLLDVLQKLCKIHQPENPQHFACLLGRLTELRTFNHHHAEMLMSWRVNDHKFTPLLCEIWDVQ
T1 sequence (P19793 1-462 partner): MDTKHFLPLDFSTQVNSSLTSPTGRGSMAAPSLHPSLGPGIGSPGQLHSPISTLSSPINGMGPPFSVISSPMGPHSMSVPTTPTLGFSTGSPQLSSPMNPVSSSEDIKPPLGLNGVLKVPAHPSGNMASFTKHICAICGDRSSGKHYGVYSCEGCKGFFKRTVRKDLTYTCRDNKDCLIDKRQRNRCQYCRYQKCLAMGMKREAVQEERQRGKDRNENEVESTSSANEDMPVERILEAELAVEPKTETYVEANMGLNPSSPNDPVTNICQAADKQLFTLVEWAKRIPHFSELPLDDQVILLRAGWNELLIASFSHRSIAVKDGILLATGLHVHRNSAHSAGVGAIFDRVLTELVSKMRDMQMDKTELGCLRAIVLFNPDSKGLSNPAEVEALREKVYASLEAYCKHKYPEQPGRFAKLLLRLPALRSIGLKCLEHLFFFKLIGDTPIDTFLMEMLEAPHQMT
Description: The basic co-transfection protocol for measuring FXR activity is as follows. CV-1 African Green Monkey Kidney cells are plated 24 hours before transfection to achieve approximately 70–80 percent confluency. Cells are transfected with CMX-hFXR, CMX-RXRα, Luc12 reporter (ECREx7-Tk-Luciferase), and a CMX-β-Galactosidase expression vector. The transfection reagent used is DOTAP. Cells are incubated with the DOTAP/DNA mixture for 5 hours after which the cells are harvested and plated onto either 96 well or 384 well plates containing the appropriate concentration of test compound. The assay is allowed to continue for an additional 18–20 hours, after which the cells are lysed, and the luciferase activity is measured on a standard plate reader.
(§1) Both the FXR/ECREx7 co-transfection assay (Example 54) and the TR-FRET assay (Example 53) can be used to establish the EC50/IC50 values for potency and percent activity or inhibition for efficacy. Efficacy defines the activity of a compound relative to a high control (chenodeoxycholic acid, CDCA) or a low control (DMSO/vehicle). The dose response curves are generated from an 8 point curve with concentrations differing by ½ LOG units. Each point represents the average of 4 wells of data from a 384 well plate. The curve for the data is generated by using the equation: Y=Bottom+(Top−Bottom)/(1+10^((LogEC50−X)*HillSlope))
(§2) The EC50/IC50 is therefore defined as the concentration at which an agonist or antagonist elicits a response that is half way between the Top (maximum) and Bottom (baseline) values. The EC50/IC50 values represented are the averages of at least 3 independent experiments. The determination of the relative efficacy or % control for an agonist is by comparison to the maximum response achieved by chenodeoxycholic acid that is measured individually in each dose response experiment.
For the antagonist assay, 40 μM CDCA is added to each well of a 384 well plate to elicit a response. The % inhibition for each antagonist is therefore a measurement of the inhibition of the activity of 40 μM CDCA. In this example 100% inhibition would indicate that the activity of 40 μM CDCA has been reduced to baseline levels, defined as the activity of the assay in the presence of DMSO only.

GST-FXR-LBD = target: T2, GST-FXR-LBD (Homo sapiens, UniProt Q96RI1); test: Time resolved fluorescence resonance energy transfer (TR-FRET) coactivator recruitment assay; assay type: biochemical
T2 sequence (Q96RI1 244-472 isoform Q96RI1-2): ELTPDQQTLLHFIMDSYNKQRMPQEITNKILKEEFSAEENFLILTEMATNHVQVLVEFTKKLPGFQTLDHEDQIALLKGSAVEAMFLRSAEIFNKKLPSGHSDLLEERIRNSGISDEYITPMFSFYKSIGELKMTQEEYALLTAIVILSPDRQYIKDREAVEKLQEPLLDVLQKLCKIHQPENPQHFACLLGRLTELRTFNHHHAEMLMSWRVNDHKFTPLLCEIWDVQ
Description: The FRET assay was performed by incubating 8 nM of GST-FXR-LBD, 8 nM of Europium-labeled anti-GST antibody (Wallac), 16 nM biotin-SRC-1 peptide [5′-biotin-[…]-CONH2], 20 nM APC-SA [allophycocyanin conjugated streptavidin] (Wallac) in FRET assay buffer (20 mM KH2PO4/K2HPO4 (pH 7.3), 150 mM NaCl, 2 mM CHAPS, 2 mM EDTA, 1 mM DTT) in the presence of the test compound(s) for 2–4 hours at room temperature. Data was collected using an LJL Analyst with readings at 615 nm and 665 nm.
as §1, with “The curve for the data is generated by using the equation: Y=Bottom+(Top−Bottom)/(1+10^((LogEC50−X)*HillSlope))” left out
as §2, with “The EC50/IC50 values represented are the averages of at least 3 independent experiments.” left out, “experiment. […]” for “experiment.”

SMILES | Emax ([1]; CV-1, read-out: % efficacy) [%] | pEC50 ([1]; co-transfection assay) | pIC50 (GST-FXR-LBD; FXR antagonism) | % inhibition (GST-FXR-LBD; inhibition of the activity of 40 μM CDCA) | Emax ([1]; CV-1, relative to maximum response of chenodeoxycholic acid (CDCA), co-transfection assay, read-out: % efficacy) [%]
CCNc1ccc(C#N)cc1N=C1SC(=C2SC(C)=C(c3ccccc3)N2C)C(=O)N1Cc1ccccc1 [Example 52, 3-(3′-benzyl-3,5-dimethyl-4′-oxo-4-phenyl-3′,4′-dihydro-3H-[2,5′]-bithiazolyliden-2′-ylideneamino)-4-(ethylamino)benzonitrile] | ~32 | ~7.25 | ~7.38 | about 48% | 
CCNc1ccc(C#N)cc1N=C1SC(=C2Sc3ccccc3N2C)C(=O)N1Cc1ccccc1 [Example 32, 3-[3-benzyl-5-(3-methyl-3H-benzothiazol-2-ylidene)-4-oxothiazolidin-2-ylideneamino]-4-(ethylamino)benzonitrile] |  | ~8.00 |  |  | ~150

Reference: patent publication US7115640B2, “Heterocyclic modulators of nuclear receptors” (X-Ceptor Therapeutics, Inc., priority 2001, dated 2006)
